Source: ChEMBL document CHEMBL1127819, “Classical and nonclassical furo[2,3-d]pyrimidines as novel antifolates: synthesis and biological activities” (J Med Chem, 1994)

How the values were obtained:
SK-5 = experiment: Inhibitory activity against melanoma SK-5 tumor cell growth in culture; type: functional, cell-based; settings: Homo sapiens
ACHN = experiment: Inhibitory activity against kidney A-CHN tumor cell growth in culture; type: functional, cell-based; settings: Homo sapiens
Dihydrofolate reductase [1] = target: Dihydrofolate reductase (Lactobacillus casei, UniProt P00381)
Description: Inhibitory concentration for DHFR in Lactobacillus casei

Dihydrofolate reductase [2] = target: T1, Dihydrofolate reductase (Rattus norvegicus, UniProt Q920D2)
T1 sequence (Q920D2 whole entry): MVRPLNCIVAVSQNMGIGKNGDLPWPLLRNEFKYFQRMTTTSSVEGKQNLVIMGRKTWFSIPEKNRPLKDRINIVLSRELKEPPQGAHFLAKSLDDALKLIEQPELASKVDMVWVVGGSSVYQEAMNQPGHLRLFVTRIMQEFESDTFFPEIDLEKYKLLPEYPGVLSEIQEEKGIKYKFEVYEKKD
Description: Inhibitory concentration for DHFR in rat liver

CCRF-CEM [3] = experiment: Inhibitory activity against CCRF-CEM tumor cell growth in culture; type: functional, cell-based; settings: Homo sapiens
Dihydrofolate reductase [4] = target: T2, Dihydrofolate reductase (Pneumocystis carinii, UniProt P16184); experiment: Inhibitory concentration for DHFR in Pneumocystis carinii
T2 sequence (P16184 whole entry): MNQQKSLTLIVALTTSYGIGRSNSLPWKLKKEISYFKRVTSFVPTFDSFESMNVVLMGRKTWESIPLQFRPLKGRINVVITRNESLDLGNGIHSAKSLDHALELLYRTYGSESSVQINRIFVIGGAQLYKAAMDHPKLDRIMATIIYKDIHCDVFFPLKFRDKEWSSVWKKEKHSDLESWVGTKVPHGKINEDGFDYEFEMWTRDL

[5] = target: T3, Bifunctional dihydrofolate reductase-thymidylate synthase (Toxoplasma gondii, UniProt Q07422)
T3 sequence (Q07422 whole entry): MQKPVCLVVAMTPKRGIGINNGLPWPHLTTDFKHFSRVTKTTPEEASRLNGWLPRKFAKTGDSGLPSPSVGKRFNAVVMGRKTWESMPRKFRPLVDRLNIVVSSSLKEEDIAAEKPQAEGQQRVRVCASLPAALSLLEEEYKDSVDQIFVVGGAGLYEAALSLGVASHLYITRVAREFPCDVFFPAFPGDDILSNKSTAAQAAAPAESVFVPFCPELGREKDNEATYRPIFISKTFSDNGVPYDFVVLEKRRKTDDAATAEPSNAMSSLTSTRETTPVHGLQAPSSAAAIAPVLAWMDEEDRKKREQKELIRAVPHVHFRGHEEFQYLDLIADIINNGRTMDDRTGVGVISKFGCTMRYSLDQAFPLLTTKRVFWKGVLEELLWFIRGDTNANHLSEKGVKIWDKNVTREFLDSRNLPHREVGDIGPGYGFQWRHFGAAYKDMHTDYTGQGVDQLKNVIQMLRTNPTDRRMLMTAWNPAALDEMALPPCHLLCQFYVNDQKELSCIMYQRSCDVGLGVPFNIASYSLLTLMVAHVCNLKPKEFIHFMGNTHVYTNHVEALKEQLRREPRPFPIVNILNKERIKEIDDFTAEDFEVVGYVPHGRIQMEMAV
Description: Inhibitory concentration for DHFR in Toxoplasma gondii

Dihydrofolate reductase [6] = target: T4, Dihydrofolate reductase (Homo sapiens, UniProt P00374); experiment: Inhibitory concentration for DHFR in recombinant human
T4 sequence (P00374 whole entry): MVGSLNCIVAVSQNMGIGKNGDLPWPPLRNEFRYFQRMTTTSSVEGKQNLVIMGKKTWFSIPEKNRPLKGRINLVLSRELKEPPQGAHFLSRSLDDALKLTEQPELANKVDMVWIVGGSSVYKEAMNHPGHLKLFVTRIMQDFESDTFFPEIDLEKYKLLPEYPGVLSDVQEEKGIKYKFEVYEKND

PC-3 = experiment: Growth inhibitory concentration against tumor cells in culture prostate cancer PC-3; type: functional, Homo sapiens
Thymidylate synthase [7] = target: Thymidylate synthase (Homo sapiens, UniProt P04818); experiment: Inhibitory concentration for TS in human
R30dm-CCRF-CEM [8] = experiment: Growth inhibition of methotrexate resistant human T-lymphoblastic leukemia cell subline R30dm; type: functional, cell-based
FaDu [9] = experiment: Protection of FaDu cells from growth inhibitory effects of compound with no addition; type: functional, Homo sapiens; parameters: scale not given: the % may be the effect or the level left
HCT-116 = experiment: Growth inhibitory concentration against tumor cells in culture colon cancer HCT116; type: functional, Homo sapiens
MDA-N = experiment: Growth inhibitory concentration against tumor cells in culture breast cancer cell line, MDA-N; type: functional, Homo sapiens
FaDu [10] = experiment: Protection of FaDu cells from growth inhibitory effects of compound by combination of 50 uM hypoxanthine (Hx) and 40 uM thymidine (TdR); type: functional, Homo sapiens; parameters: scale not given: the % may be the effect or the level left
LOX IMVI = experiment: Growth inhibitory concentration against tumor cells in culture melanoma LOX-IMVI; type: functional, Homo sapiens
CCRF-CEM [11] = experiment: Growth inhibition of human T-lymphoblastic leukemia cell line CCRF-CEM; type: functional, cell-based
HL-60 = experiment: Growth inhibitory concentration against tumor cells in culture leukemia cell line, HL-60(TB); type: functional, Homo sapiens
MCF7 = experiment: Growth inhibitory concentration against tumor cells in culture breast cancer cell line, MCF-7; type: functional, Homo sapiens
IGROV-1 = experiment: Growth inhibitory concentration against tumor cells in culture ovarian cancer IGROV-1; type: functional, Homo sapiens
FaDu [12] = experiment: Protection of FaDu cells from growth inhibitory effects of compound by 10 uM leucovorin (LV); type: functional, Homo sapiens; parameters: scale not given: the % may be the effect or the level left
786-0 = experiment: Growth inhibitory concentration against tumor cells in culture renal cancer […] cell line; type: functional, Homo sapiens
MDA-MB-435 = experiment: Growth inhibitory concentration against tumor cells in culture breast cancer cell line, MDA-MB-435; type: functional, Homo sapiens
FaDu [13] = experiment: Protection of FaDu cells from growth inhibitory effects of compound by 50 uM hypoxanthine (Hx); type: functional, Homo sapiens; parameters: scale not given: the % may be the effect or the level left
NCI-H460 = experiment: Growth inhibitory concentration against tumor cells in culture non-small-cell-lung NCI-H460; type: functional, Homo sapiens
FaDu [14] = experiment: Protection of FaDu cells from growth inhibitory effects of compound by 40 uM thymidine (TdR); type: functional, Homo sapiens; parameters: scale not given: the % may be the effect or the level left
U-251 = experiment: Growth inhibitory concentration against tumor cells in cultureCNS cancer cell line, U-251; type: functional, Homo sapiens
K562 = experiment: Growth inhibitory concentration against tumor cells in culture leukemia cell line, K-562; type: functional, Homo sapiens
Thymidylate synthase [15] = target: Thymidylate synthase (Lactobacillus casei, UniProt P00469); experiment: Inhibitory concentration for TS in Lactobacillus casei; parameters: species or system Lacticaseibacillus casei
CCRF-CEM [16] = experiment: Growth inhibition of methotrexate resistant human T-lymphoblastic leukemia cell subline CEM/MTX; type: functional, cell-based
[17] = tested on: folylpolyglutamate synthetase (FPGS); experiment: (§1) Activity is determined as substrate for CCRF-CEM human leukemia cell folyl-poly-glutamate synthetase; type: ADME; settings: folylpolyglutamate synthetase from CCRF-CEM leukemia cells
Homo sapiens = organism: Homo sapiens; experiment: as §1; type: ADME
FaDu [18] = experiment: Growth inhibition of human squamous cell carcinoma FaDu; type: functional, cell-based
SF-268 = experiment: Growth inhibitory concentration against tumor cells in culture CNS cancer cell line, SF-268; type: functional, Homo sapiens
FaDu [19] = experiment: the growth inhibition of, (during continuous exposure) human squamous cell carcinoma FaDu at resistance mechanism - sensitive
R30dm-CCRF-CEM [20] = experiment: the growth inhibition of, (during continuous exposure) methotrexate resistant human T-lymphoblastic leukemia cell subline R30dm at resistance mechanism - decreased FPGS; type: functional, cell-based

Dihydrofolate reductase (Lactobacillus casei, UniProt P00381), sequence (P00381 whole entry): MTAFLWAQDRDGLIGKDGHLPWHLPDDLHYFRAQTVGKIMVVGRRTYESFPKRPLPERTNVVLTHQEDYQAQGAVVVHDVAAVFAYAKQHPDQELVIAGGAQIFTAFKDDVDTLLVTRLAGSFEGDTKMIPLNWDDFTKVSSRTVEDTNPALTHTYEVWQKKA
Thymidylate synthase (Homo sapiens, UniProt P04818), sequence (P04818 whole entry): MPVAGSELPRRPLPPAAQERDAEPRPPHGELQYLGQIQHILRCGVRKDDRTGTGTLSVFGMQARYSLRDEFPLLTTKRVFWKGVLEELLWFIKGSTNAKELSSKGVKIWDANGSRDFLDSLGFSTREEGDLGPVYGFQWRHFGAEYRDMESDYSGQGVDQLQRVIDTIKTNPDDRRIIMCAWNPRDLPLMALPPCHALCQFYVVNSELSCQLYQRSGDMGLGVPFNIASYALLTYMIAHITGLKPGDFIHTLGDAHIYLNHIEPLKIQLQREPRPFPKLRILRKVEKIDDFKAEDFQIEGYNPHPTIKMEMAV
Thymidylate synthase (Lactobacillus casei, UniProt P00469), sequence (P00469 whole entry): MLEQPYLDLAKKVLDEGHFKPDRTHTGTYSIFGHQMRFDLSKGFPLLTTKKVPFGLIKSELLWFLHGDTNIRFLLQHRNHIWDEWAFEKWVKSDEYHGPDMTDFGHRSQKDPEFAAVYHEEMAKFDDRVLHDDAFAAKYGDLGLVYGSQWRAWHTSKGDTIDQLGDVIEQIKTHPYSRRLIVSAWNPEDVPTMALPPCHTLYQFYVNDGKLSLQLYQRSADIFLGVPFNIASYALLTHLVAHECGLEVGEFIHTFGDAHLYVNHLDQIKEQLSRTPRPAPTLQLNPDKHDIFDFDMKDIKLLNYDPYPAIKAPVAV

Compound: COc1cc(NCc2coc3nc(N)nc(N)c23)cc(OC)c1OC
- IC50 (SK-5): > 130 µM
- IC50 (ACHN): > 130 µM
- IC50 (Dihydrofolate reductase [1]): > 26 µM
- IC50 (Dihydrofolate reductase [2]): > 37 µM
- IC50 (CCRF-CEM [3]): 111 µM
- IC50 (Dihydrofolate reductase [4]): > 4 µM
- IC50 [5]: 4 µM
- IC50 (Dihydrofolate reductase [6]): > 26 µM

Compound: COc1ccc(OC)c(NCc2coc3nc(N)nc(N)c23)c1
- IC50 (SK-5): > 160 µM
- IC50 (ACHN): > 160 µM
- IC50 (Dihydrofolate reductase [1]): > 31 µM
- IC50 (Dihydrofolate reductase [2]): > 21 µM
- IC50 (CCRF-CEM [3]): 132 µM
- IC50 (Dihydrofolate reductase [4]): > 21 µM
- IC50 [5]: > 21 µM
- IC50 (Dihydrofolate reductase [6]): > 15 µM

Compound: Nc1nc(N)c2c(CNc3cc(Cl)c(Cl)c(Cl)c3)coc2n1
- IC50 (SK-5): 47.6 µM
- IC50 (ACHN): 40.9 µM
- IC50 (Dihydrofolate reductase [1]): > 25 µM
- IC50 (Dihydrofolate reductase [2]): 25.6 µM
- IC50 (CCRF-CEM [3]): 10.6 µM
- IC50 (Dihydrofolate reductase [4]): 8.3 µM
- IC50 [5]: > 3.9 µM
- IC50 (Dihydrofolate reductase [6]): > 25 µM

Compound: Nc1nc(N)c2c(CNc3ccc(C(=O)NC(CCC(=O)O)C(=O)O)cc3)coc2n1 (configuration not stated)
- IC50 (SK-5): > 100 µM
- IC50 (ACHN): > 100 µM
- IG50 (PC-3): 0.7 µM
- IC50 (Thymidylate synthase [7]): > 200 µM
- EC50 (R30dm-CCRF-CEM [8]): 0.663 µM
- Control (FaDu [9]): 4.9%
- IG50 (HCT-116): 0.09 µM
- IC50 (Dihydrofolate reductase [1]): 0.56 µM
- IG50 (MDA-N): 1.73 µM
- Control (FaDu [10]): 82%
- IG50 (LOX IMVI): 1.23 µM
- EC50 (CCRF-CEM [11]): 0.142 µM
- IG50 (HL-60): 0.02 µM
- IG50 (MCF7): 6.31 µM
- IG50 (IGROV-1): >100 µM
- Control (FaDu [12]): 110%
- IC50 (Dihydrofolate reductase [2]): 1.3 µM
- IG50 (786-0): 0.91 µM
- IG50 (MDA-MB-435): 45.8 µM
- IC50 (CCRF-CEM [3]): 0.59 µM
- Control (FaDu [13]): 4.5%
- IG50 (NCI-H460): 3.75 µM
- IC50 (Dihydrofolate reductase [4]): 0.9 µM
- Control (FaDu [14]): 18.4%
- IG50 (U-251): 1.97 µM
- IG50 (K562): 0.06 µM
- IC50 [5]: 0.7 µM
- IC50 (Thymidylate synthase [15]): > 200 µM
- IC50 (Dihydrofolate reductase [6]): 0.45 µM
- EC50 (CCRF-CEM [16]): 3.17 µM
- Km [17]: 1.9 µM
- Vmax (Homo sapiens): 0.45 rel
- EC50 (FaDu [18]): 0.126 µM
- IG50 (SF-268): 1.77 µM

Compound: Nc1nc(N)c2c(CNc3ccc(Cl)c(Cl)c3)coc2n1
- IC50 (SK-5): > 150 µM
- IC50 (ACHN): > 150 µM
- IC50 (Dihydrofolate reductase [1]): > 3 µM
- IC50 (Dihydrofolate reductase [2]): 35.2 µM
- IC50 (CCRF-CEM [3]): 40.9 µM
- IC50 (Dihydrofolate reductase [4]): > 35 µM
- IC50 (Dihydrofolate reductase [6]): > 15 µM

Compound: CN(Cc1coc2nc(N)nc(N)c12)c1ccc(C(=O)NC(CCC(=O)O)C(=O)O)cc1 (configuration not stated)
- IC50 (SK-5): 14 µM
- IC50 (ACHN): 0.837 µM
- IG50 (PC-3): <0.01 µM
- IC50 (Thymidylate synthase [7]): > 200 µM
- EC50 (R30dm-CCRF-CEM [8]): 1.03 µM
- Control (FaDu [9]): 6.6%
- IG50 (HCT-116): 0.02 µM
- IC50 (Dihydrofolate reductase [1]): 0.22 µM
- IG50 (MDA-N): 0.065 µM
- Control (FaDu [10]): 80%
- IG50 (LOX IMVI): 0.04 µM
- EC50 (CCRF-CEM [11]): 0.047 µM
- IG50 (HL-60): <0.01 µM
- IG50 (MCF7): 0.08 µM
- IG50 (IGROV-1): 0.73 µM
- Control (FaDu [12]): 106%
- IC50 (Dihydrofolate reductase [2]): 0.43 µM
- IG50 (786-0): 0.07 µM
- IG50 (MDA-MB-435): 0.09 µM
- IC50 (CCRF-CEM [3]): 0.043 µM
- Control (FaDu [13]): 1.9%
- IG50 (NCI-H460): 0.15 µM
- IC50 (Dihydrofolate reductase [4]): 0.035 µM
- Control (FaDu [14]): 17.1%
- IG50 (U-251): 0.75 µM
- IG50 (K562): 0.024 µM
- IC50 [5]: 19.8 µM
- IC50 (Thymidylate synthase [15]): > 200 µM
- EC50 (CCRF-CEM [16]): 2.27 µM
- Km [17]: 4.65 µM
- Vmax (Homo sapiens): 0.75 rel
- EC50 (FaDu [18]): 0.055 µM
- IG50 (SF-268): 0.59 µM

Compound: Nc1nc(N)c2nc(CNc3ccc(C(=O)N[C@@H](CCC(=O)O)C(=O)O)cc3)cnc2n1 [AMINOPTERIN]
- Km [17]: 6.8 µM
- Vmax (Homo sapiens): 1 rel

Compound: CN(Cc1cnc2nc(N)nc(N)c2n1)c1ccc(C(=O)N[C@@H](CCC(=O)O)C(=O)O)cc1 [METHOTREXATE]
- Control (FaDu [9]): 2.5%
- Control (FaDu [10]): 98%
- Control (FaDu [12]): 114%
- EC50 (FaDu [19]): 0.019 µM
- Control (FaDu [13]): 11%
- Control (FaDu [14]): 7.3%
- EC50 (R30dm-CCRF-CEM [20]): 0.018 µM
